The values that follow come from patent publication US9675627B2, “Dosing regimens for treating and/or preventing cerebral amyloidoses” (Amicus Therapeutics, Inc., priority 2014, dated 2017).

The target of data set [1] is T1, β-hex.
T1 construct: other: pH 5; other: pH 7
Nature of the data set: β-hex enzymatic inhibition in fibroblast lysate (4-MU substrate). The class given is biochemical, human. The text has this:
(§1) Enzymatic activity measurements were done in duplicate.

For data set [2], the target named is T2, β-glucocerebrosidase (GCase) (Homo sapiens, UniProt P04062).
T2 construct: wild-type fibroblast (CRL2076) pellets (˜2.5e6 cells/pellet) were lysed; host or cells: wild-type fibroblasts CRL2076, lysate
T2 sequence (P04062 40-536): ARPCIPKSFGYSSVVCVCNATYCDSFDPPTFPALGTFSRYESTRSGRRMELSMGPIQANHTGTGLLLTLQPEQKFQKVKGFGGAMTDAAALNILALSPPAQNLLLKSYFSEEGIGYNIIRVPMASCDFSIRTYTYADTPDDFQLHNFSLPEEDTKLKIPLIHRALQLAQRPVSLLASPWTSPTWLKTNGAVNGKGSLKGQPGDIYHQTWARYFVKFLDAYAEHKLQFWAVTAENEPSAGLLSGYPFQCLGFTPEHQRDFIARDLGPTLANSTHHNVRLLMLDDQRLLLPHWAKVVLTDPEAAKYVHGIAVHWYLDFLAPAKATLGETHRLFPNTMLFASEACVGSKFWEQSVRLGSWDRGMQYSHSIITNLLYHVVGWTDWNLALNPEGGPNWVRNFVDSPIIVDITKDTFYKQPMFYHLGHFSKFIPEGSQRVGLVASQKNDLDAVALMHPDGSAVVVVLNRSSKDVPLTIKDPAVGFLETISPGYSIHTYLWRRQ
Nature of the data set: Selectivity: glucocerebrosidase activity in fibroblast lysate. It counts as biochemical. The conditions noted are these: 10 μM, the highest concentration tested.
Excerpt: as §1

For a further data set, the system named is SH-SY5Y cells. Nature of the data set: Cell viability, tetrazolium-formazan conversion. The class given is cell-based, human. To be noted: concentrations as high as 1 mM, up to 120 hours. The procedure:
Viability of human fibroblast (CRL2076) and human neuroblastoma (SH-SY5Y) cells was tested after prolonged exposure to varying concentrations of AdDNJ. In a 96-well plate, fibroblasts were incubated in complete media containing increasing concentrations of AdDNJ up to 1 mM for either 72 or 120 hours at 37° C. in a humidified 8% CO2 incubator. Living cells were quantified using a tetrazoliuim-formazan conversion method according to the manufacturer's instructions (Promega Non-Radioactive 96-well Titer assay, TB112). SH-SY5Y cells were tested in the same manner as fibroblasts but plated in collagen-coated plates (Nunc #152036). After 24 hour, 48 hour and 120 hour exposure to AdDNJ, living SH-SY5Y cells were quantified as described above. All dosing concentrations were done in triplicate.

The test system of data set [3] is β-hex. How it is done:
AdDNJ selectivity was assessed by measuring its effect on the enzymatic activity of hexosaminadase (Total Hex, Hex A/S and Hex B), and 3 other lysosomal hydrolases: alpha-galactosidase, beta-galactosidase and glucocerebrosidase. For enzymatic assays, wild-type fibroblast (CRL2076) pellets (˜2.5e6 cells/pellet) were lysed with 200 μl of pH 5 lysis buffer (Phosphate/citrate, 0.25% tauorocholate, 0.1% TX100). Fibroblast lysates were diluted 1:200 in pH 5 reaction buffer (lysis buffer without TX100) containing 2 mM of the appropriate 4-methylumbelliferyl (4-MU) substrate, incubated for 1 h at 37° C. and stopped with 0.5 M sodium carbonate. Released 4MU was measured using a Perkin Elmer Victor 5× fluorescence plate reader (ex355/em460). Measurement of Total Hex activity was carried out using 4-methylumbelliferyl beta-N-acetylglucosaminide (MUG); for Hex A/S activity 4MU-beta-N-acetylglucosamine-6-sulfate (MUGS); Hex B activity was calculated as the difference between Total Hex and Hex A/S activity; for alpha-galactosidase activity […]; for beta-galactosidase activity 4-MU beta-D-galactoside; for glucocerebrosidase activity 4MU beta-D-glucopyranoside. As positive controls for enzymatic inhibition 100 μM of the following compounds were used: for alpha-galactosidase, 1-deoxygalactonojirimycin; for beta-galactosidase, N-Butyl-1-deoxygalactonojirimycin; for glucocerebrosidase, isofagamine. For beta-hexosaminadase enhancement assays, fibroblasts were exposed to 0, 95, 390 and 780 nM of AdDNJ for 5 days followed by beta-hexosamindase activity measurement. Enzymatic activity measurements were done in duplicate.
5-week-old C57BL/J6 mice (n=5 mice/group, Taconic Farms, Germantown, N.Y.) were administered vehicle (water) or AdDNJ (30, 100 or 300 mg/kg) via oral gavage every day for 14 days. On day 15 mice were euthanized and brain/plasma collected for analysis. For single dose PK studies, 5-week-old C57BL/J6 mice (n=5 mice/group, Taconic Farms, Germantown, N.Y.) received a single 100 mg/kg dose (oral gavage) of AdDNJ and groups euthanized at 0.5, 1, 2, 4, 8, 16, 24 and 48 hours post dose for brain and plasma analysis. Whole brain tissue (10-15 mg) was homogenized in 1 mL of pH 5 lysis buffer for measuring beta-hexosaminidase activity as described above. AdDNJ levels were measured in plasma and brain samples using LC-MS/MS.

The subject of data set [4] is GM1, GM2, and GM3 ganglioside levels. Nature of the data set: TLC analysis of whole brain ganglioside levels. The class given is in vivo, Dutch APP^E693Q transgenic mice. The conditions noted are these: 3 months of 100 mg/kg. How it is done:
(§2) The generation and characterization of Dutch APPE693Q mice transgenic mice is described in Gandy, S., et al. Days to criterion as an indicator of toxicity associated with human Alzheimer amyloid-beta oligomers. Annals of neurology 68, 220-230 (2010). 3-month-old male Dutch APP^E693Q mice transgenic mice were orally gavaged 5 days/week with either vehicle (water) (n=15) or 3, 10, 30 or 100 mg/kg AdDNJ for 3 months (n=13). All animal studies were approved and conducted in accordance with the Institutional Animal Care and Usage Committee. Mice were kept in a pathogen-free environment, on a 12-hour light/dark cycle and given ad libitum access to food and water. At 6 month of age treatment groups, and a 3-month-old untreated baseline group (n=15), were cognitively assessed in the NOR, EPM and FC tests. 48 hours following the final dose mice were perfused with ice-cold 1×PBS. The brain was removed and dissected into two hemispheres. One half was snap-frozen on dry ice and stored at −80° C. for biochemistry; the other half was post-fixed in 4% paraformaldehyde then sagittally sectioned on a vibratome into 30 μm sections and stored at 4° C. in storage buffer until histological analyses.

Data set [5] relates to ganglioside-bound Aβ (GAβ). Nature of the data set: GAβ immunohistochemistry (clone 4396C). It counts as in vivo, Dutch APP^E693Q transgenic mice. The conditions noted are these: 100 mg/kg, 3 months. The procedure:
as §2
Aβ was assessed via free-floating immunohistochemistry using mAb 6E10 (1:1000, Covance) as previously described20. GAβ was assessed via free-floating immunohistochemistry using mouse anti-GAβ, clone 4396C (1:100), a gift from Dr. Katsuhiko Yanagisawa as previously described19. Images were captured on an Olympus BX61 upright microscope with an attached Olympus DP71 camera. Integrated density of GAβ staining was measured using Image J (National Institute of Health, Bethesda, Md.).

Setting [6] is: daily gavage 14 days at 30, 100 and 300 mg/kg.

As a reminder, the Ki is a measure of affinity in units of concentration, obtained from inhibition or displacement. The low end stands for higher affinity, the high end for lower affinity. As to `CC(=O)NC1CNC(CO)[C@@H](O)C1O` (some centres unmarked) [AdDNJ, 2-acetamido-1,2-dideoxynojirimycin], at β-hex [1] (pH 5), the Ki came to 253 nM. In addition, the Ki on β-hex [1] (pH 7) amounted to 342 nM. Moreover, the “inhibition of β-glucocerebrosidase (GCase)” value in data set [2] is recorded as “did not inhibit”. In the data set on SH-SY5Y cells, the “effect on cell viability” value is “little or no effect on cell viability”. In addition, the “time of maximum increase in β-hex levels” value in the data set on β-hex [3] (daily gavage 30, 100, 300 mg/kg) is on record as roughly 5 days. Further, in the data set with β-hex [3] (setting [6]), the “GM2 levels in whole brain extracts” value is listed as “without increasing GM2 levels” and the “brain β-hex levels” value was “dose-dependent increase”. In the data set with β-hex [3] (data not shown), the “half-life of elevated β-hex levels in the brain” value was roughly 48 h. The “ganglioside levels in whole brain extracts (TLC)” value in data set [4] is “did not reveal any changes in ganglioside levels”. Further, in data set [5], the “GAβ immunoreactivity, CA1 region of the hippocampus” value is given as “did not reach significance”; the “GAβ immunoreactivity, lateral entorhinal cortex” value is “trend toward reduction”; the “GAβ immunoreactivity, perirhinal cortex” value is “striking quantitative reduction”; the “GAβ immunoreactivity, subiculum” value is given as “striking quantitative reduction”. In addition, in data set [5], the “GAβ immunoreactivity, visual cortex” value is given as “did not reach significance”.
